Assay results published in US20240246977A1, “DEGRADATION OF BRUTON'S TYROSINE KINASE (BTK) BY CONJUGATION OF BTK INHIBITORS WITH E3 LIGASE LIGAND AND METHOD OF USE” (BeiGene Switzerland GmbH, priority 2021, published 2024).

Experiments:
BTK = BTK (Homo sapiens, UniProt Q06187); assay: BTK cell degradation in TMD-8 cells, HTRF assay; assay type: cell-based; set-up: endogenous in cells; host or cells: TMD-8 cells; conditions: 6 h treatment, IC50 (DC50) of BTK degradation
Experimental: TMD-8 cells were treated with compounds diluted in 0.2% DMSO, dilution was done according to the following protocol: (1) making 500× stock solution in DMSO from 1 mM by 6-fold dilution, total 8 doses were included; (2) making 2× solution in cell culture medium by transferring 0.5 μl 500× stock solution into 125 μl medium; (3) adding 15 μl of 2× solution to cells for incubation of 6 h.
After 6 h treatment, 10 μl 14×lysis buffer was added to each well; the plate was sealed and incubated for 30 min at room temperature on a plate shaker; Once the cells was lysed, 16 μL of cell lysate were transferred to a PE 384-well HTRF detection plate; 4 μL of pre-mixed HTRF antibodies were added to each well; the plate was covered with a plate sealer, and then spinned at 1000 rpm for 1 min, then incubated overnight at room temperature; the results were read on BMG PheraStar with HTRF protocol (337 nm-665 nm-620 nm).
The inhibition (degradation) percentage of the compound was calculated by the following equation: Inhibition percentage of Compound=100−100×(Signal-low control)/(High control-low control), wherein signal=each test compound group
High control=Cell group with added DMSO and without compound, indicating microplate readings without BTK degradation;
Dmax is the maximum percentage of inhibition (degradation).
The IC50 (DC50) value of a compound can be obtained by fitting the following equation
Y=Bottom+(TOP−Bottom)/(1+((IC50/X)^hillslope))
(§1) wherein, X and Y are known values, and IC50, Hillslope, Top and Bottom are the parameters obtained by fitting with software. Y is the inhibition percentage (calculated from the equation), X is the concentration of the compound; IC50 is the concentration of the compound when the 50% inhibition is reached. The smaller the IC50 value is, the stronger the inhibitory ability of the compound is. Vice versa, the higher the IC50 value is, the weaker the ability the inhibitory ability of the compound is; Hillslope represents the slope of the fitted curve, generally around 1*; Bottom represents the minimum value of the curve obtained by data fitting, which is generally 0%±20%; Top represents the maximum value of the curve obtained by data fitting, which is generally 100%±20%. The experimental data were fitted by calculating and analyzing with Dotmatics data analysis software.

HEK-293 cells = assay: HEK-293 cytotoxicity detection (CellTiter-Glo); assay type: cell-based; conditions: Homo sapiens, 72 h, 72 h incubation, CellTiter-Glo luminescence, read-out: HEK293
Experimental: HEK-293 cells were treated with compounds diluted in 0.2% DMSO, dilution was done according to the following protocol: (1) making 500× stock solution in DMSO from 5 mM by 4-fold dilution, total 8 doses were included; (2) making 2× solution in cell culture medium by transferring 0.5 ul 500× stock solution into 125 ul medium; (3) adding 50 ul of 2× solution to cells for incubation of 72 h.
25 μl of the CellTiter-Glo®Reagent [(Promega)—Cat No. G7572] was added to each well in the 96-well plate. The contents were mixed for 2 minutes on an orbital shaker to induce cell lysis. The plate was then allowed to incubate at room temperature for 10 minutes to stabilize luminescent signal. Luminescence was recorded on BMG PheraStar with luminescence protocol.
The inhibition percentage of the compound was calculated by the following equation: Inhibition percentage of Compound=100−100×(Signal-low control)/(High control-low control), wherein signal=each test compound group
High control=Cell group with added DMSO and without compound, indicating cells proliferation with no inhibition;
Imax is the maximum percentage of inhibition.
The IC50 value of a compound can be obtained by fitting the following equation
as §1, with “Wherein,” for “wherein,”

BTK, sequence (Q06187 whole entry): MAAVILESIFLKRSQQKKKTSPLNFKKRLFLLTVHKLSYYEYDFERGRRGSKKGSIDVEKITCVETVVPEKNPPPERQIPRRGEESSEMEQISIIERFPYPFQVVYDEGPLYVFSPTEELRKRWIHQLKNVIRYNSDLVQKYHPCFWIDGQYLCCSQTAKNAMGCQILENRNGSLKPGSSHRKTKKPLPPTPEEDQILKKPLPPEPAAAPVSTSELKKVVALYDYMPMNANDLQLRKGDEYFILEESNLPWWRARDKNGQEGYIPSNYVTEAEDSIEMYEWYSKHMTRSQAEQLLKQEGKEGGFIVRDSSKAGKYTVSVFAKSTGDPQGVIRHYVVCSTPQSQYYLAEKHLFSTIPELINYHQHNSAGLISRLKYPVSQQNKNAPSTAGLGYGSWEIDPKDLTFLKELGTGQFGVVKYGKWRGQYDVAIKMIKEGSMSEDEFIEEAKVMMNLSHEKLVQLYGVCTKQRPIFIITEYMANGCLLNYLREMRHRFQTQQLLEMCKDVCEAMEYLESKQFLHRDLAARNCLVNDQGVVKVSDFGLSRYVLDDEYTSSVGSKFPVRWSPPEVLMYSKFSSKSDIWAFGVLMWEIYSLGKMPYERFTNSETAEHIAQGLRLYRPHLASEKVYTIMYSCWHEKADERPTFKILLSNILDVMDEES

| DC50 (BTK) [nM] | Compound | IC50 (HEK-293 cells) [nM] |
| --- | --- | --- |
| 10.1 | COc1ccc2ccccc2c1C(=O)NCc1ccc(-c2nn3c(c2C(N)=O)Nc2ccc(N4CCN(CC5CCN(c6ccc(N7CCC(=O)NC7=O)cc6)CC5)CC4)cc2CC3)cc1C [Example C10, 7-(4-((1-(4-(2,4-dioxotetrahydropyrimidin-1(2H)-yl)phenyl)piperidin-4-yl)methyl)piperazin-1-yl)-2-(4-((2-methoxy-1-naphthamido)methyl)-3-methylphenyl)-9,10-dihydro-4H-benzo[d]pyrazolo[1,5-a][1,3]diazepine-3-carboxamide] | > 10000 |
| 3.52 | COc1ccccc1C(=O)NCc1cc(F)c(-c2nn3c(c2C(N)=O)Nc2ccc(N4CCN(CC5CCN(c6ccc(N7CCC(=O)NC7=O)cc6)CC5)CC4)cc2CC3)cc1C [Example C48, 7-(4-((1-(4-(2,4-dioxotetrahydropyrimidin-1(2H)-yl)phenyl)piperidin-4-yl)methyl)piperazin-1-yl)-2-(2-fluoro-4-((2-methoxybenzamido)methyl)-5-methylphenyl)-9,10-dihydro-4H-benzo[d]pyrazolo[1,5-a][1,3]diazepine-3-carboxamide] | > 10000 |
| 2.12 | COc1cccc(OC)c1C(=O)NCc1ccc(-c2nn3c(c2C(N)=O)Nc2ccc(N4CCN(CC5CCN(c6ccc(N7CCC(=O)NC7=O)cc6)CC5)CC4)cc2CC3)cc1 [Example C22, 2-(4-((2,6-dimethoxybenzamido)methyl)phenyl)-7-(4-((1-(4-(2,4-dioxotetrahydropyrimidin-1(2H)-yl)phenyl)piperidin-4-yl)methyl)piperazin-1-yl)-9,10-dihydro-4H-benzo[d]pyrazolo[1,5-a][1,3]diazepine-3-carboxamide] | > 10000 |
| 7.02 | COc1cc(C)ccc1C(=O)NCc1ccc(-c2nn3c(c2C(N)=O)Nc2ccc(N4CCN(CC5CCN(c6ccc(N7CCC(=O)NC7=O)cc6)CC5)CC4)cc2CC3)cc1C [Example C31, 7-(4-((1-(4-(2,4-dioxotetrahydropyrimidin-1(2H)-yl)phenyl)piperidin-4-yl)methyl)piperazin-1-yl)-2-(4-((2-methoxy-4-methylbenzamido)methyl)-3-methylphenyl)-9,10-dihydro-4H-benzo[d]pyrazolo[1,5-a][1,3]diazepine-3-carboxamide] | > 10000 |
| 5.36 | COc1ccc(F)cc1C(=O)NCc1ccc(-c2nn3c(c2C(N)=O)Nc2ccc(N4CCN(CC5CCN(c6ccc(N7CCC(=O)NC7=O)cc6)CC5)CC4)cc2CC3)cc1C [Example C42, 7-(4-((1-(4-(2,4-dioxotetrahydropyrimidin-1(2H)-yl)phenyl)piperidin-4-yl)methyl)piperazin-1-yl)-2-(4-((5-fluoro-2-methoxybenzamido)methyl)-3-methylphenyl)-9,10-dihydro-4H-benzo[d]pyrazolo[1,5-a][1,3]diazepine-3-carboxamide] | > 10000 |

Second part, the compound before the results:

| Compound | DC50 (BTK) [nM] | IC50 (HEK-293 cells) [nM] |
| --- | --- | --- |
| NC(=O)c1c(-c2ccc(Oc3ccccc3)cc2)nn2c1Nc1cc(C3CCN(CC4CCN(c5ccc(NC6CCC(=O)NC6=O)cc5)CC4)CC3)ccc1CC2 (centres unmarked) [Example A35, 6-(1-((1-(4-((2,6-dioxopiperidin-3-yl)amino)phenyl)piperidin-4-yl)methyl)piperidin-4-yl)-2-(4-phenoxyphenyl)-9,10-dihydro-4H-benzo[d]pyrazolo[1,5-a][1,3]diazepine-3-carboxamide] | 69.1 | 241 |
| NC(=O)c1c(-c2ccc(Oc3ccccc3)cc2)nn2c1Nc1ccc(N3CCN(c4ccc5c(c4)C(=O)N(C4CCC(=O)NC4=O)C5=O)CC3)cc1CC2 (centres unmarked) [Example A7, 7-(4-(2-(2,6-dioxopiperidin-3-yl)-1,3-dioxoisoindolin-5-yl)piperazin-1-yl)-2-(4-phenoxyphenyl)-9,10-dihydro-4H-benzo[d]pyrazolo[1,5-a][1,3]diazepine-3-carboxamide] | 2.51 | 178 |
| Cc1cccc(NC(=O)c2ccc(-c3nn4c(c3C(N)=O)Nc3ccc(N5CCN(C6CC(c7ccc(N8CCC(=O)NC8=O)cc7)C6)CC5)cc3CC4)c(F)c2C)n1 (centres unmarked) [Example B64, 7-(4-(3-(4-(2,4-dioxotetrahydropyrimidin-1(2H)-yl)phenyl)cyclobutyl)piperazin-1-yl)-2-(2-fluoro-3-methyl-4-((6-methylpyridin-2-yl)carbamoyl)phenyl)-9,10-dihydro-4H-benzo[d]pyrazolo[1,5-a][1,3]diazepine-3-carboxamide] | 4.85 | > 10000 |
| NC(=O)c1c(-c2ccc(Oc3ccccc3)cc2)nn2c1Nc1cc(C3CCN(CCc4ccc(N5CCC(=O)NC5=O)cc4)CC3)ccc1CC2 [Example A33, 6-(1-(4-(2,4-dioxotetrahydropyrimidin-1(2H)-yl)phenethyl)piperidin-4-yl)-2-(4-phenoxyphenyl)-9,10-dihydro-4H-benzo[d]pyrazolo[1,5-a][1,3]diazepine-3-carboxamide] | > 2000 | 314 |
| Cc1cccc(NC(=O)c2ccc(-c3nn4c(c3C(N)=O)Nc3ccc(N5CCN(CC6CCN(c7ccc(N8CCC(=O)NC8=O)cc7)CC6)CC5)cc3CC4)cc2C)n1 [Example B21, 7-(4-((1-(4-(2,4-dioxotetrahydropyrimidin-1(2H)-yl)phenyl)piperidin-4-yl)methyl)piperazin-1-yl)-2-(3-methyl-4-((6-methylpyridin-2-yl)carbamoyl)phenyl)-9,10-dihydro-4H-benzo[d]pyrazolo[1,5-a][1,3]diazepine-3-carboxamide] | 0.602 | > 10000 |
| Cc1c(C(=O)Nc2cscn2)ccc(-c2nn3c(c2C(N)=O)Nc2ccc(N4CCN(C5CC(c6ccc(N[C@@H]7CCC(=O)NC7=O)cc6)C5)CC4)cc2CC3)c1F (stereo partly drawn) [Example B100, (R)-7-(4-(3-(4-((2,6-dioxopiperidin-3-yl)amino)phenyl)cyclobutyl)piperazin-1-yl)-2-(2-fluoro-3-methyl-4-(thiazol-4-ylcarbamoyl)phenyl)-9,10-dihydro-4H-benzo[d]pyrazolo[1,5-a][1,3]diazepine-3-carboxamide] | 2.14 | 34.1 |
| Cc1cccc(NC(=O)c2cnc(-c3nn4c(c3C(N)=O)Nc3ccc(N5CCN(CC6CCN(c7ccc(N8CCC(=O)NC8=O)cc7)CC6)CC5)cc3CC4)cc2C)n1 [Example B36, 7-(4-((1-(4-(2,4-dioxotetrahydropyrimidin-1(2H)-yl)phenyl)piperidin-4-yl)methyl)piperazin-1-yl)-2-(4-methyl-5-((6-methylpyridin-2-yl)carbamoyl)pyridin-2-yl)-9,10-dihydro-4H-benzo[d]pyrazolo[1,5-a][1,3]diazepine-3-carboxamide] | 47.2 | > 10000 |
| NC(=O)c1c(-c2ccc(C(=O)Nc3ccccn3)cc2)nn2c1Nc1ccc(N3CCN(CC4CCN(c5ccc(N6CCC(=O)NC6=O)cc5)CC4)CC3)cc1CC2 [Example B4, 7-(4-((1-(4-(2,4-dioxotetrahydropyrimidin-1(2H)-yl)phenyl)piperidin-4-yl)methyl)piperazin-1-yl)-2-(4-(pyridin-2-ylcarbamoyl)phenyl)-9,10-dihydro-4H-benzo[d]pyrazolo[1,5-a][1,3]diazepine-3-carboxamide] | 0.704 | > 10000 |
